Legend:
[1] = test system: DMBA-induced mammary tumors; assay: DMBA-induced Mammary Tumor Inhibition; format: in vivo, female Sprague-Dawley rats; settings: Test II, 300 ppm in diet (approx. 30 mg/kg/day), 4 weeks
Experimental: Mammary tumors were produced in female Sprague-Dawley rats which were 50-60 days old by the gavage administration of 20 mg of 7,12-dimethylbenz[a]anthracene (DMBA). About six weeks after DMBA administration, the mammary glands were palpated at weekly intervals for the appearance of tumors. Whenever one or more tumors appeared and were measurable in an animal, that animal was selected for experimentation. […] Each control and test group contained 8 animals. The test compound was administered mixed into the food at a concentration of 300 ppm (corresponding to an appropriate daily dose of 30 mg/kg). Every experiment included a group of control rats having tumors and were given food without the compound admixed. […] The area of each tumor was calculated by multiplying the shortest and longest diameters of the tumor. The treatment and measurement of animals continued for 4-5 weeks at which time the final areas of the tumors were determined. For each compound (and control) at each dose level, the change in the mean tumor area was determined.
*dosed in the diet. 300 ppm corresponds to approximately 30 mg/kg/day.

[2] = target: T1, aromatase (Rattus norvegicus, UniProt P22443); assay: biochemical
T1 sequence (P22443 1-508): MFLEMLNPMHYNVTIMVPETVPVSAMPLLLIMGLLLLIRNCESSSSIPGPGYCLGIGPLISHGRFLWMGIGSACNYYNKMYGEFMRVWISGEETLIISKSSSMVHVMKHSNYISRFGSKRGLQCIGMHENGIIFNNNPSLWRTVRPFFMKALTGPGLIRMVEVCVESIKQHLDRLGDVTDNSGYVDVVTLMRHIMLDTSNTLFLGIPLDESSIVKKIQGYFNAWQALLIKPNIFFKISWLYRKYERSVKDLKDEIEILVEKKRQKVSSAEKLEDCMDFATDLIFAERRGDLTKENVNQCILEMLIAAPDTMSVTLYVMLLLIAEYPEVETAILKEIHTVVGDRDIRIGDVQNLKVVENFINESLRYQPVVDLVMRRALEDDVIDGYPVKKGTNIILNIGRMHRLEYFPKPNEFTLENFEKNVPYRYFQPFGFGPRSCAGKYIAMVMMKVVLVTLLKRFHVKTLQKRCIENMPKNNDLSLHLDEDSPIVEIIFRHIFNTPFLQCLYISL
Experimental: In this test system, ovarian microsomes are obtained from rats treated with pregnant mares serum gonadotropin. Test compounds are added to reaction vials containing 0.1 μM 4-androstene-3,17-dione, 100,000 dpm 1,2[^3 H]-androstenedione, the microsomes and a NADPH generating system. The concentrations of the inhibitors tested ranged between 0.005 and 10 μM.

[3] = test system: estrogen synthesis (aromatization); uterus; assay: Estrogen Synthesis Inhibition in Rats: uterine weight of testosterone propionate-treated immature rats; format: in vivo, immature female Wistar rats; settings: Test I, 7 days, value marked + (p < 0.05 vs testosterone-treated control, 211.5)
Experimental: Immature female Wistar rats (45-55 grams) were divided into control and test groups of 2-8 animals each. Test compounds were administered for seven days as a component of the diet. Control animals received diet without the test compound. Beginning on the fourth day of the test, all animals treated with the test compound and one half of the control animals were given a subcutaneous injection of 1.0 mg of testosterone propionate in corn oil. The remaining control animals received only an equivalent volume of corn oil. On the seventh day of the test, rats treated with testosterone propionate were injected subcutaneously with 100 μCi of [^3 H]-testosterone in 50 μl of 3:1 (v/v) saline-ethanol.
After two hours, the animals were killed by decapitation. Uteri were isolated, trimmed of extraneous connective tissue, and weighed. […] In the control animals treated with testosterone propionate, estrogens produced by aromatization stimulated the uterus resulting in an increase in weight.
*ppm in feed. 300 ppm corresponds to approximately 30 mg/kg/day; 200 ppm
corresponds to approximately 20 mg/kg/day; 30 ppm corresponds to
approximately 3 mg/kg/day.

[4] = test system: estrogen synthesis (ovarian estradiol, estrone, estriol); assay: Estrogen Synthesis Inhibition in Rats: ovarian steroid concentration after [3H]-testosterone; format: in vivo, immature female Wistar rats; settings: Test I, 7 days; for Mean Steroid Concentration, estrone: testosterone-treated control 0.10; for Mean Steroid Concentration, estriol: testosterone-treated control 0.24; for Mean Steroid Concentration, estradiol: testosterone-treated control 1.43
Experimental: Test compounds were administered for seven days as a component of the diet. Control animals received diet without the test compound. Beginning on the fourth day of the test, all animals treated with the test compound and one half of the control animals were given a subcutaneous injection of 1.0 mg of testosterone propionate in corn oil. The remaining control animals received only an equivalent volume of corn oil.
The ovarian steroids were extracted with 1.5 ml of 9:1 (v/v) toluene/ethanol to which had been added 25 to 100 mcg each of unlabelled estradiol, estriol, and estrone, and approximately 1000 dpm of [^14 C]-estradiol. The samples were vortexed, centrifuged at 500×g for 10 minutes, and the organic phase was transferred to a conical vial. Two additional extractions were performed on the residue in the same way. The pooled organic extracts were evaporated for subsequent thin-layer chromatography.
Ovarian proteins were precipitated by the addition of 5.0 ml of ethanol to the remaining aqueous phase. After an overnight incubation at 4° C., the samples were centrifuged at 1500×g for 10 minutes. The supernatant was discarded and the pellet was dissolved in 0.3N potassium hydroxide.
The organic residue from each above extraction was redissolved in 9:1 (v/v) dichloromethane/methanol. The solution of each sample was applied to separate silica gel thin layer chromatography plates which contained a fluorescent indicator. The plates were developed in the first dimension with 160:38:1.5:0.5 (v/v/v/v) dichloromethane/ethyl acetate/methanol/acetic acid to within 3 cm of the top of the plate. After air-drying, the plate was developed in the second dimension with 180:19:1 (v/v/v) dichloromethane/methanol/ammonium hydroxide.
The spots were scraped from the plate using a glass wool plugged Pasteur pipet attached to a vacuum line. The steroids were eluted directly into scintillation vials by the addition of 0.2 ml of dichloromethane followed by two washes each of 2.0 ml of methanol. The organic solvent was evaporated and 10.0 ml of scintillation fluid (Beckman Ready Solv-NA) was added to the vials. Samples were analyzed by liquid scintillation spectrometry. Corrections were made based on the recoveries of the [^14 C]-steroid. Steroid concentrations are expressed as femtomoles per milligram protein.

[5] = test system: breast cancer; settings: result in words; see Cancer Research, Vol. 42, Suppl. 8:3261s (1982); cited from earlier work
[6] = 30 ppm in feed (approx. 3 mg/kg/day)
[7] = 300 ppm in feed (approx. 30 mg/kg/day)

| SMILES | Mean Tumor Area, Start ([1]; baseline, control 62.8) [mm^2] | Mean Tumor Area, Finish ([1]; control 1087.0) [mm^2] | EC50 [2] [nM] | Mean Uterine Weight [3, 6] [mg] | Mean Uterine Weight [3, 7] [mg] | Mean Steroid Concentration, estrone [4, 6] | Mean Steroid Concentration, estriol [4, 6] | Mean Steroid Concentration, estradiol [4, 6] | Mean Steroid Concentration, estrone [4, 7] | Mean Steroid Concentration, estriol [4, 7] | Mean Steroid Concentration, estradiol [4, 7] | effect in treatment of breast cancer [5] |
| --- | --- | --- | --- | --- | --- | --- | --- | --- | --- | --- | --- | --- |
| Clc1ccc(N(Cc2cccnc2)C2=NCCS2)cc1 [N--(4-chlorophenyl)-N--(4,5-dihydro-2-thiazolyl)-3-pyridinemethanamine] | 61.4 | 464.0 | 68 | 141.5 | 136.0 | 0.31 femtomoles per milligram of protein | 0.27 femtomoles per milligram of protein | 1.46 femtomoles per milligram of protein | 0.09 femtomoles per milligram of protein | 0.46 femtomoles per milligram of protein | 1.42 femtomoles per milligram of protein | – |
| CCC1(c2ccc(N)cc2)CCC(=O)NC1=O (stereo not shown) [aminoglutethimide] | – | – | – | – | – | – | – | – | – | – | – | beneficial effect in treatment of breast cancer |
| C[C@]12C=CC(=O)C=C1CC[C@@H]1[C@@H]2CC[C@]2(C)OC(=O)CC[C@@H]12 [testolactone] | – | – | – | – | – | – | – | – | – | – | – | beneficial effect in treatment of breast cancer |

— patent US4767770A, “Method of inhibiting aromatase” (Eli Lilly and Company, priority 1984, dated 1988)
